Laboratory results taken from ChEMBL document CHEMBL1201862, “PubChem BioAssay data set” (2004).
Active and inactive are the calls of the source.

Columns and labels:
[1] = molecular target: Kallikrein-7 (Homo sapiens, UniProt P49862); assay: Fluorescence Intensity-based biochemical primary high throughput dose response assay to identify activators of kallikrein-7 (K7) zymogen.
[2] = Vero E6 cell cytotoxicity, dose response, cytotoxicity control for non-replicating M. tuberculosis project, secondary assay (AID 492998); assay type: functional, VeroE6; conditions: Vero C1008
[3] = cells; assay type: functional
[4] = viability of uninfected HEp-2 cells – cell-based, HTS, cytotoxicity control for RSV inhibitor project, dose response (AID 2410); assay type: functional; conditions: human respiratory syncytial virus
[5] = A cytotoxicity screen of small molecule inhibitors of the PhoP region in Salmonella typhi identified in the primary screen. [Related pubchem assays: 1850, 1864, 1985 ]; assay type: functional
[6] = molecular target: Voltage-dependent T-type calcium channel subunit alpha-1H (Homo sapiens, UniProt O95180); assay type: functional;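 note: channel activity triggered by adding a high calcium stimulation buffer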
Chain of Voltage-dependent T-type calcium channel subunit alpha-1H (O95180 whole entry): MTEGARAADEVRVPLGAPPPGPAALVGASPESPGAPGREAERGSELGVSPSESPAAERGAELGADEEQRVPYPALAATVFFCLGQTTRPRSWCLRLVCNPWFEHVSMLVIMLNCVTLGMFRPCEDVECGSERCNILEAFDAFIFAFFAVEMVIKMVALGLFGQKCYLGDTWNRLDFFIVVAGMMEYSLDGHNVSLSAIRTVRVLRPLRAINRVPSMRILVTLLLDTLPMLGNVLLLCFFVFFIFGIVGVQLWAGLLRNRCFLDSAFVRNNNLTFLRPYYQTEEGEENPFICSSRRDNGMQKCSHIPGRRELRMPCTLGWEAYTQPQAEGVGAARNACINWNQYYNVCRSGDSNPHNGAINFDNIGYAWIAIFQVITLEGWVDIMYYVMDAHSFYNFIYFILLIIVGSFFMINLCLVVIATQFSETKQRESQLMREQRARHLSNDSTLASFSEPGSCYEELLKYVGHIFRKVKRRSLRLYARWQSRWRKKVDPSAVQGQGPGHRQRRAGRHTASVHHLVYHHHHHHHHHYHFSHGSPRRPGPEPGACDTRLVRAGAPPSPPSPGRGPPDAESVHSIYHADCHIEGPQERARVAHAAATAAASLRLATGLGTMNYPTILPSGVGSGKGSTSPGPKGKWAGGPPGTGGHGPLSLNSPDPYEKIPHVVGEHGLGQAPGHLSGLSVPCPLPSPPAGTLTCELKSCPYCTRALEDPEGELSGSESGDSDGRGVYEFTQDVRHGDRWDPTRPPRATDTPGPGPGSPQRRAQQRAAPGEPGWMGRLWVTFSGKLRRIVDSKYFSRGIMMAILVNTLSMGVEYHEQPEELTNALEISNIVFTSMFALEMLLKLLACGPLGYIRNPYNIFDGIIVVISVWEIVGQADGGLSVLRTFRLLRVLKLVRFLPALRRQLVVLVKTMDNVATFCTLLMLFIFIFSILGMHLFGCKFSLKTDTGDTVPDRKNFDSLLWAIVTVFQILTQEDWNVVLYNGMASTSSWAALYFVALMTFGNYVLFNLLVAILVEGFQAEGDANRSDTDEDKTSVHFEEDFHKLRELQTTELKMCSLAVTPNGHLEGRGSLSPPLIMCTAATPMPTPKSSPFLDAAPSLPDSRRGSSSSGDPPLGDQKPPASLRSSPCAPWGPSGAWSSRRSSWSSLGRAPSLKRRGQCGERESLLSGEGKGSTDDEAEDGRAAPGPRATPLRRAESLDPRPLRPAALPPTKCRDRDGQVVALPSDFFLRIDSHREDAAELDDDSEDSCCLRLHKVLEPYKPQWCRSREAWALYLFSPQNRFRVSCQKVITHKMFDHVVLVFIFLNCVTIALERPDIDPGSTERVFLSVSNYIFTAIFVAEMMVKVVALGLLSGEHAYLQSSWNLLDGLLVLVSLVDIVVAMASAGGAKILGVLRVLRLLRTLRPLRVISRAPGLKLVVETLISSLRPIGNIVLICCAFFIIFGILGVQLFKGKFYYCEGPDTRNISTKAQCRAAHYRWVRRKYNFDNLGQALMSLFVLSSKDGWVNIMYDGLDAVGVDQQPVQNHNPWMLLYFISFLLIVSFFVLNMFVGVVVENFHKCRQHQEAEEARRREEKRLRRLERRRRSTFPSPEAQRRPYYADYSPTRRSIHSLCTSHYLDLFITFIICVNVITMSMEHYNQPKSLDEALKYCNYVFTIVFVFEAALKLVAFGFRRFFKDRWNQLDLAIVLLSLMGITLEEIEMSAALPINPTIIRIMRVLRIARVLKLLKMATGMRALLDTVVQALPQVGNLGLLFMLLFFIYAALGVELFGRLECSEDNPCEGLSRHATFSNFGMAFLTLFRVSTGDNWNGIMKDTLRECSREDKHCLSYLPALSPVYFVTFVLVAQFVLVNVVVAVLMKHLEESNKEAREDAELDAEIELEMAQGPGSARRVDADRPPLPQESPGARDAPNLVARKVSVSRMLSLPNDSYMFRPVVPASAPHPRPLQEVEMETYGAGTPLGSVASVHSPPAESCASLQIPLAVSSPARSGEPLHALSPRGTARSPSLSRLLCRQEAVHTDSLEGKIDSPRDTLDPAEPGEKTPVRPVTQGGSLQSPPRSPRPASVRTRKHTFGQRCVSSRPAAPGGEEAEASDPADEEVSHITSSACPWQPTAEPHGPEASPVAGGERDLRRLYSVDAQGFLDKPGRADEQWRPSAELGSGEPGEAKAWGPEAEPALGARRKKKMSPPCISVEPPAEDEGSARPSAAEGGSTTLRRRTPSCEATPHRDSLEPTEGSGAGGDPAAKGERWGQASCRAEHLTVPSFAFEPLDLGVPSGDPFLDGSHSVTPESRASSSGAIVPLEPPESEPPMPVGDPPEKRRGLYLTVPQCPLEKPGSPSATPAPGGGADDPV

[7] = molecular target: FAD-linked sulfhydryl oxidase ALR (Homo sapiens, UniProt P55789); assay: ALR-catalysed DTT oxidation blockers – biochemical, H2O2 detection, luminescence, cherry-pick, dose response (AID 493248)
Chain of FAD-linked sulfhydryl oxidase ALR (P55789 whole entry): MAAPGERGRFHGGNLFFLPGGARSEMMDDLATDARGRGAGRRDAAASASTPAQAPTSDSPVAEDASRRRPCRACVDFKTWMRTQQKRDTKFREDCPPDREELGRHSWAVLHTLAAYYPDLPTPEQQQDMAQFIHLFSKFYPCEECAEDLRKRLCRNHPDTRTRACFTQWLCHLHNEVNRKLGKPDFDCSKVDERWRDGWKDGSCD

[8] = A Cell Based Secondary Assay To Explore Cytotoxicity of Compounds that Sensitize Mycobacterium Tuberculosis to Beta-Lactam Antibiotics.; assay type: functional
[9] = tested on: H9c2; assay: cells; assay type: functional, cell-based; conditions: Rattus norvegicus, H9c2, Myocardium;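 note: confirmatory concentration-response retest of ultra-high-throughput screening hits for modulation of myocardial damage; cell death induced by hydrogen peroxide oxidative stress; compound pretreatment for 60 min then peroxide exposure for 2 h; potency is for protecting the cells against peroxide damage rather than for killing them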
[10] = molecular target: T1, Corticotropin-releasing factor receptor 2/Corticotropin-releasing factor-binding protein (Homo sapiens, UniProt P24387+Q13324); assay: Dose Response confirmation of uHTS hits for small molecule antagonists of the CRF-binding protein and CRF-R2 receptor complex.; assay type: functional; conditions: read-out: IC50_Mean
T1 sequence (Q13324 whole entry): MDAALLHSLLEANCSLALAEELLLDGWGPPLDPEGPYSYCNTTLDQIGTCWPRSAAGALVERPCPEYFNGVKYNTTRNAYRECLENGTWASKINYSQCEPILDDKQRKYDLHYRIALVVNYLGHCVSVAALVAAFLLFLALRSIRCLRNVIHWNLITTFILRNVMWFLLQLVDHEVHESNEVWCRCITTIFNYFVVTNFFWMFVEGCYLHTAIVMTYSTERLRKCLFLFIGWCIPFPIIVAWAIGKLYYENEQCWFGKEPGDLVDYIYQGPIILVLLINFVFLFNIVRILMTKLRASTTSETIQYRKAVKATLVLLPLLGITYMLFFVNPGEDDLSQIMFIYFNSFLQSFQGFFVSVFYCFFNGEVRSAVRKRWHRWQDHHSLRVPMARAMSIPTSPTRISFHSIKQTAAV
T1 sequence (P24387 whole entry): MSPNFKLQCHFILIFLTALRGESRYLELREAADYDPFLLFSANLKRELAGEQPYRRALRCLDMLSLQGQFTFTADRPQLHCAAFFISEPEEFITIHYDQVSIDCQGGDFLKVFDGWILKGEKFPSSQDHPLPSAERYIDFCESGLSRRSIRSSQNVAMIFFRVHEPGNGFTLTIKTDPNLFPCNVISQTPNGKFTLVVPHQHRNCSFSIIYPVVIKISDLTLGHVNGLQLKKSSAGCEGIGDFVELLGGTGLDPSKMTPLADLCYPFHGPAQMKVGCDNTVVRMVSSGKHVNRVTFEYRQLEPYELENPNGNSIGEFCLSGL

[11] = molecular target: T1, Corticotropin-releasing factor receptor 2/Corticotropin-releasing factor-binding protein; assay: activators of CRF receptor 2 with binding protein – uHTS hits, confirmation (AID 602473); assay type: functional; conditions: read-out: EC50_Mean
[12] = luciferase reporter signal suppression in cells – H4 neuroglioma cells, luminescence, dose response (AID 1990); assay type: functional, cell-based
[13] = Luminescence Cell-Based Dose Response HTS to Identify Inhibitors of 5'UTR Stem-Loop Driven Prion Protein mRNA Translation in H4 Neuroglioblastoma Cells. [Related pubchem assays: 1827 (Project Summary), 1813 (Primary HTS)]; assay type: functional
[14] = alpha-synuclein stem-loop luciferase translation blockers – H4 neuroglioma cells, luminescence, confirmation (AID 1988); assay type: functional, cell-based
[15] = molecular target: 26S proteasome non-ATPase regulatory subunit 14 (Homo sapiens, UniProt O00487); assay: inhibition of proteasome subunit RPN11 – biochemical, fluorescence polarization, uHTS hits, confirmation (AID 602368); assay type: functional
Chain of 26S proteasome non-ATPase regulatory subunit 14 (O00487 whole entry): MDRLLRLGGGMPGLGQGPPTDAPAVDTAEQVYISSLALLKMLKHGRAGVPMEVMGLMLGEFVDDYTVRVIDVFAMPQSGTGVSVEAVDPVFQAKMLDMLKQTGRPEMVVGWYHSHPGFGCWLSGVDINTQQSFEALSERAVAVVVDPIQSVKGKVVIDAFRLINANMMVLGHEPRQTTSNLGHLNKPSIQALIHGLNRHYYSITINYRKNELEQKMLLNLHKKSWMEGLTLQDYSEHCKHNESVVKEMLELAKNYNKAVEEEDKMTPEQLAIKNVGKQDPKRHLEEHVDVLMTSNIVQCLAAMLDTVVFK

[16] = molecular target: 72 kDa type IV collagenase (Homo sapiens, UniProt P08253); assay: Dose Response validation of uHTS RPN11 inhibitor hits using a MMP-2 Fluorescence assay.; assay type: functional
Chain of 72 kDa type IV collagenase (P08253 whole entry): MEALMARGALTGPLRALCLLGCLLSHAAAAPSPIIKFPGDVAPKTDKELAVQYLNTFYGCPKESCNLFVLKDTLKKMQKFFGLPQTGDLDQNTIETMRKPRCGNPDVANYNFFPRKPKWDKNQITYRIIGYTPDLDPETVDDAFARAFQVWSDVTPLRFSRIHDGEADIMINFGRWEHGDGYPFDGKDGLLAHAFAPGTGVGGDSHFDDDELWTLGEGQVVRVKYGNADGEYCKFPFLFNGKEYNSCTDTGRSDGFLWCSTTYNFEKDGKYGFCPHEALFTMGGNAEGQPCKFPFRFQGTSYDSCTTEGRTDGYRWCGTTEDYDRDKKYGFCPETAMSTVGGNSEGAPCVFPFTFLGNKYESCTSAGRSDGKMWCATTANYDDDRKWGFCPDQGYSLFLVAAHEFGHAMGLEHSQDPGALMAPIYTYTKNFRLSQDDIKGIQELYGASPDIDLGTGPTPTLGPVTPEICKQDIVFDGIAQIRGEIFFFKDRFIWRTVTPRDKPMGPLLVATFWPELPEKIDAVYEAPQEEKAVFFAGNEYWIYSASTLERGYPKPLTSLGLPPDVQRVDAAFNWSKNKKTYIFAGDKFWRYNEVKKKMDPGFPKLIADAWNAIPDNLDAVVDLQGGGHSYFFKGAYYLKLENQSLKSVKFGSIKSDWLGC

[17] = molecular target: Prothrombin (Bos taurus, UniProt P00735); assay: thrombin protease inhibitors – biochemical, fluorescence polarization, uHTS hits, dose response (AID 602369); assay type: functional
[18] = molecular target: Paired box protein Pax-8 (Homo sapiens, UniProt Q06710); assay: PAX8 transcriptional activity inhibition in RMG-I – RMG-I cells, luciferase, cherry-pick, dose response (AID 687027); assay type: functional, cell-based;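 note: luciferase reporter driven by Pax8 target thyroperoxidase promoter measured by SteadyGlo luminescence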
Chain of Paired box protein Pax-8 (Q06710 whole entry): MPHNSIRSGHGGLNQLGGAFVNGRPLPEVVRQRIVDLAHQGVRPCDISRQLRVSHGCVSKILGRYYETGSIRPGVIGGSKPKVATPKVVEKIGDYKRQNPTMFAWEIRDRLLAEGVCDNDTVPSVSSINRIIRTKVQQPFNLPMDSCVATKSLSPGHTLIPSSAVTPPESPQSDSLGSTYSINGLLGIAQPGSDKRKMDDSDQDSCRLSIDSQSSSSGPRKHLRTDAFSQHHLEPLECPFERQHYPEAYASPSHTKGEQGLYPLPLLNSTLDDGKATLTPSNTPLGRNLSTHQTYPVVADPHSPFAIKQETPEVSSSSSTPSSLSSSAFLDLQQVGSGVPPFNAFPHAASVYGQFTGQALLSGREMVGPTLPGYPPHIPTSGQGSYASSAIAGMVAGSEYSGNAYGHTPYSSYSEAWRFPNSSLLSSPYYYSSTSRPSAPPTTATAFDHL

[19] = OVCAR-3 cell viability loss – plate reader, dry powder samples, PAX8 inhibitor project, dose response (AID 743044); assay type: functional, cell-based
[20] = IGROV1 cell killing – plate reader, dry powder samples, PAX8 inhibitor project, dose response (AID 743043); assay type: functional, cell-based; conditions: IGROV-1
[21] = cells; assay type: functional, cell-based
[22] = cells; assay type: functional, cell-based; remark: listed apart in the source
[23] = tested on: Vero; assay: viability of Vero cells under compound – cytotoxicity control for flavivirus capping enzyme inhibitors (AID 588742); assay type: functional; conditions: Chlorocebus sabaeus
[24] = reduction of Shn3 3'UTR-driven luciferase in osteoblasts – cell-based, Clone20 osteoblasts, firefly luciferase, cherry-picked, dose response (AID 624132); assay type: functional;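 note: firefly luciferase luminescence from reporter carrying the Shn3 3'UTR in osteoblasts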
[25] = loss of viability in HepG2 cells – cell-based, CellTiter-Glo, cherry-picked, cytotoxicity control for Shn3 inhibitor project, dose response (AID 624134); assay type: functional
[26] = non-specific 3'UTR reporter inhibition in Clone20-Shn3RL – cell-based, Renilla luciferase, cherry-picked, counter-screen for Shn3 inhibitor project, dose response (AID 624133); assay type: functional

Chain of Kallikrein-7 (P49862 whole entry): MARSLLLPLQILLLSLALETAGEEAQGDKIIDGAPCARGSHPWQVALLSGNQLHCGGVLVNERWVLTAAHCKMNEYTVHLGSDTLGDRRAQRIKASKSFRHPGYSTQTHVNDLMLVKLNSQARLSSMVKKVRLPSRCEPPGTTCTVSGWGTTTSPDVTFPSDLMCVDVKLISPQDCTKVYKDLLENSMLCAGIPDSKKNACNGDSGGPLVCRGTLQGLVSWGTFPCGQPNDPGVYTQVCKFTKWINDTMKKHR

## Cc1cc2nc(-c3ccc(SCc4ccccn4)nc3)[nH]c2cc1C
[1]
  EC50: 12.9 µM (inactive)

## CCCn1nnnc1NC(=O)c1cc(Cl)ccc1Cl
[2]
  CC50: > 20 µM (active)
[3]
  IC50: 5.95 µM (active)

## Cc1ccc2[nH]c(C(=O)O)c(NC(=O)CN3CCN(c4cccc(C)c4C)CC3)c2c1
[4]
  CC50: 13.9 µM (active)
[5]
  EC50: > 50 µM (active)
[6]
  EC50: 5.05 µM (active)
[7]
  AC50: 16.3 µM (active)

## COc1ccc(Cl)cc1NC(=O)CN(C)C(=O)c1ccc(N2CCCCCC2)c([N+](=O)[O-])c1
[8]
  CC50: > 40 µM (active)

## O=C(COC(=O)Cn1[nH]c(=O)c2ccccc2c1=O)NNC(=O)c1ccc(Br)cc1
[9]
  IC50: 17.2 µM (active)

## O=C(Nc1ccccc1)c1nc[nH]c1C(=O)NCCCCCCNC(=O)c1[nH]cnc1C(=O)Nc1ccccc1
[9]
  IC50: > 79 µM (inactive)

## CCN1CCN(c2nc(O)c3c(n2)CCC3)CC1
[9]
  IC50: > 79 µM (inactive)

## Cc1cccc(N2CCN(C(=O)CCc3nc(O)c4ccccc4n3)CC2)c1C
[9]
  IC50: > 79 µM (inactive)
[10]
  IC50: > 47.1 µM (inactive)
[11]
  EC50: > 53 µM (inactive)

## CCOC(=O)/C=c1\s/c(=C\c2c(OC)ccc3ccccc23)c(=O)n1CC(=O)NCC1CCCO1 (configuration not stated)
[12]
  EC50: 10.5 µM (active)
[8]
  CC50: 12.6 µM (active)
[13]
  EC50: 12.3 µM (active)
[14]
  EC50: 8.43 µM (active)

## N#C/C(=C\C1=C(N2CCOCC2)C(=C\c2ccc(Cl)cc2)/CC1)C(=O)Nc1ccccc1F
[4]
  CC50: 18.3 µM (active)
[15]
  IC50: 6.46 µM (active)
[16]
  IC50: > 100 µM (inactive)
[17]
  IC50: 17 µM (active)

## O=C(N/N=C/c1ccc(Cl)cc1Cl)c1ccc2[nH]cnc2c1
[15]
  IC50: 20.9 µM (active)
[16]
  IC50: > 100 µM (inactive)
[17]
  IC50: 51.7 µM (active)

## C[C@H]1CCCCO[C@H](CN(C)C(=O)Nc2ccc(C(F)(F)F)cc2)[C@@H](C)CN([C@@H](C)CO)C(=O)c2cc(NC(=O)CCC(F)(F)F)ccc2O1
[18]
  AC50: 6.57 µM (active)
[19]
  AC50: 39.9 µM (active)
[20]
  AC50: 54.7 µM (active)

## COc1ccc(C(NC(=O)c2cccnc2)c2cc(Cl)c3cccnc3c2O)cc1OC (configuration not stated)
[12]
  EC50: 13.3 µM (active)
[21]
  EC50: 14.2 µM (active)
[13]
  EC50: 0.297 µM (active)
[14]
  EC50: > 120 µM (not active)
[22]
  EC50: > 350 µM (not active)
[23]
  CC50: 3.92 µM (active)
[24]
  AC50: 1.88 µM (active)
[25]
  AC50: 2.7 µM (active)
[26]
  AC50: 1.14 µM (active)
